Measurements as given in ChEMBL document CHEMBL3046565, “Fungicidal and herbicidal activities of berberine related alkaloids” (2000).

What was measured:
Assay type in all cases: functional
[1] = test system: Puccinia recondita; assay: Antifungal activity against Puccinia recondita on wheat plant assessed as disease control at 100 ppm after 24 hr
[2] = test system: Lemna minor; assay: Herbicidal activity against Lemna minor (common duckweed) at 1 ppm after 9 days relative to control
[3] = test system: Parastagonospora nodorum; assay: Antifungal activity against Phaeosphaeria nodorum on wheat plant assessed as disease control at 100 ppm after 24 hr
[4] = test system: Zymoseptoria tritici; assay: Antifungal activity against Zymoseptoria tritici on wheat plant at 25 ppm after 24 hr
[5] = test system: Ustilago maydis; assay: Antifungal activity against Ustilago maydis on rice plant at 25 ppm after 24 hr; settings: Mycosarcoma maydis
[6] = test system: Rhizoctonia solani; assay: Antifungal activity against Rhizoctonia solani on rice plant at 25 ppm after 24 hr
[7] = test system: Pyricularia oryzae; assay: microbe, parasite or virus in culture; settings: 24 h
[8] = test system: Blumeria graminis f. sp. tritici; assay: Antifungal activity against Blumeria graminis f. sp. tritici on wheat plant assessed as disease control at 100 ppm after 24 hr
[9] = test system: Parastagonospora nodorum; assay: Antifungal activity against Phaeosphaeria nodorum on wheat plant at 25 ppm after 24 hr
[10] = test system: Agrostis stolonifera var. palustris; assay: Herbicidal activity against Agrostis stolonifera var. palustris at 1 ppm after 9 days relative to control
[11] = test system: Phytophthora infestans; assay: microbe, parasite or virus in culture; settings: in Oryza sativa, 24 h

COc1cc2c(cc1OC)-c1cc3ccc(OC)c(O)c3c[n+]1CC2.[Cl-] [PALMATRUBINE]
0%: Activity [1] | Activity [2] | Activity [3] | inhibition at 25 ppm [4] | inhibition at 25 ppm [5] | inhibition at 25 ppm [6] | inhibition at 25 ppm [7] | Activity [8] | inhibition at 25 ppm [9] | Activity [10] | inhibition at 25 ppm [11]
